Columns and labels:
[1] = target: dipeptidyl peptidase-IV enzyme (DPP-4) (Homo sapiens (Human), UniProt P27487); assay: continuous fluorometric DPP-4 inhibition assay with substrate Gly-Pro-AMC; type: biochemical; conditions: soluble human DPP-4, Gly-Pro-AMC substrate
Protocol: Inhibition constants are determined as follows. A continuous fluorometric assay is employed with the substrate Gly-Pro-AMC, which is cleaved by DPP-4 to release the fluorescent AMC leaving group. The kinetic parameters that describe this reaction are as follows: Km=50 μM; kcat=75 s^−1; kcat/Km=1.5×10^6 M^−1s^−1. A typical reaction contains approximately […], 50 μM Gly-Pro-AMC, and buffer (100 mM HEPES, pH 7.5, 0.1 mg/ml BSA) in a total reaction volume of 100 μL. Liberation of AMC is monitored continuously in a 96-well plate fluorometer using an excitation wavelength of 360 nm and an emission wavelength of 460 nm. Under these conditions, approximately 0.8 μM AMC is produced in 30 minutes at 25 degrees C. The enzyme used in these studies was soluble (transmembrane domain and cytoplasmic extension excluded) human protein produced in a baculovirus expression system (Bac-To-Bac, Gibco BRL). […] To measure the dissociation constants for compounds, solutions of inhibitor in DMSO were added to reactions containing enzyme and substrate (final DMSO concentration is 1%). All experiments were conducted at room temperature using the standard reaction conditions described above. To determine the dissociation constants (Ki), reaction rates were fit by non-linear regression to the Michaelis-Menton equation for competitive inhibition. The errors in reproducing the dissociation constants are typically less than two-fold.

[2] = target: DPP-4 (Homo sapiens (Human), UniProt P27487); conditions: cited from earlier work
[3] = tested on: rats; conditions: doubled from day 7 to day 14; cited from earlier work
[4] = tested on: mouse; conditions: mouse model of cyclophosphamide-induced neutropenia; cited from earlier work

dipeptidyl peptidase-IV enzyme (DPP-4), sequence (P27487 29-766): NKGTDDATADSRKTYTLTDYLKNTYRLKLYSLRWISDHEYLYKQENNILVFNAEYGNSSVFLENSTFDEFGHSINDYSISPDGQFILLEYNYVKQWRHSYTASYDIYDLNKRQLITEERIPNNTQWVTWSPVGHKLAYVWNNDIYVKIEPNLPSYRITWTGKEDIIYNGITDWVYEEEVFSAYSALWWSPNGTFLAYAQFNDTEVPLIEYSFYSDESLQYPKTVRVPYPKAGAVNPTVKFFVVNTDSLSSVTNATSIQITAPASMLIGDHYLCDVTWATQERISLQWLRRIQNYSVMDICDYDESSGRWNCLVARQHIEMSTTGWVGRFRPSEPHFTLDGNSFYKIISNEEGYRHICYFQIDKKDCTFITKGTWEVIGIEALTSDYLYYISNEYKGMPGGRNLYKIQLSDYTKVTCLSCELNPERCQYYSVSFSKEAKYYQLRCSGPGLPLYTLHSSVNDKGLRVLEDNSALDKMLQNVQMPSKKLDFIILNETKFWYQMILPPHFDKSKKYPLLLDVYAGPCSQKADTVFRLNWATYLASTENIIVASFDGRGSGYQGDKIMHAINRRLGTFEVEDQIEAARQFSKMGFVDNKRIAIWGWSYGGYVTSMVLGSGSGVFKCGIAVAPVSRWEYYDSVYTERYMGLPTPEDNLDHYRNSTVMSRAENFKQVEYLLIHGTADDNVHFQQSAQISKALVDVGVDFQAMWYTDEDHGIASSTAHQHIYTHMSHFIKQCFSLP
DPP-4, sequence (P27487 39-766, species assumed): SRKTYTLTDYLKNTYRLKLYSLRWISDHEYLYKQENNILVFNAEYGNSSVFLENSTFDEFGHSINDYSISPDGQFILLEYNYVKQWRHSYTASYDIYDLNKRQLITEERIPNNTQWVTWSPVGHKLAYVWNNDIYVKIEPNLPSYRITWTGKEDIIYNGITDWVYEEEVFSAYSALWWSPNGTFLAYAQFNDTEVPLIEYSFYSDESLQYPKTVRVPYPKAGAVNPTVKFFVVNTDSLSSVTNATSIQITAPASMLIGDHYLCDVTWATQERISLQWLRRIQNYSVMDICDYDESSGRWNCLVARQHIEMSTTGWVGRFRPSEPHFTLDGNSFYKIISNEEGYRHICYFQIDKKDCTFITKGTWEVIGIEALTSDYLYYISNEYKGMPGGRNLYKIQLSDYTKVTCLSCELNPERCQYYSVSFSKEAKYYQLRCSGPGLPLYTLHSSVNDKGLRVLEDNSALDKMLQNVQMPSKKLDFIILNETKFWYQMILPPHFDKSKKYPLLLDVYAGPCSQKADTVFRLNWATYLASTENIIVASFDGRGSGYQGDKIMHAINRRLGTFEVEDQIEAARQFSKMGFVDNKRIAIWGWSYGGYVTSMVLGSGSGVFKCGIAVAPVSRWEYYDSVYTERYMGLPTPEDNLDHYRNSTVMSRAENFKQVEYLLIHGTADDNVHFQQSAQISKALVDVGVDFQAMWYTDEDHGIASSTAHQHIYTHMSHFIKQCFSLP

SMILES	IC50 [1] [nM]	also measured
CS(=O)(=O)n1cc2c(n1)CN([C@@H]1C[C@H](N)[C@@H](c3cc(F)ccc3F)[C@H]3CC13)C2 (stereo partly drawn) [Example 2]	9	–
CS(=O)(=O)n1cc2c(n1)CN([C@@H]1C[C@H](N)[C@@H](c3cc(F)ccc3F)[C@@H]3C[C@@H]31)C2 [Example 3]	5.4	–
CC[C@H](C)[C@H](N)C(=O)N1CCC[C@H]1C(=O)N[C@H](C(=O)O)[C@@H](C)CC [diprotin A]	–	degradation of GRF in plasma to GRF[3-44] [2]: prevented
N[C@H]1CC(N2Cc3c[nH]nc3C2)c2ccccc2[C@@H]1c1cc(F)ccc1F (stereo partly drawn) [Example 1]	> 1000	–
CC(C)N1CCC(c2ccccc2)(c2ccccc2)CC1 [Prodipine, Pro-Pro-diphenyl-phosphonate]	–	cardiac allograft survival [3]: 14 day
CC(C)[C@H](N)C(=O)N1CCC[C@H]1B(O)O [Val-Boro-Pro]	–	hematopoiesis [4]: stimulated hematopoiesis

Source: patent publication US9315508B2, “Treating diabetes with dipeptidyl peptidase-IV inhibitors” (Merck Sharp & Dohme Corp., priority 2012, dated 2016)
